Data from EP4810052A2, “HCRHR2 SELECTIVE POLYPEPTIDES” (Gubra A/S, priority 2023, dated 2026).
Like-named read-outs stand apart in the source and are kept apart here. Marks after values point to notes of the source that are not given here. Starred links: 1 amine or outer side, 2 acyl side, 3 side chain; linkers in the order of their positions; H or OH if unused. Non-standard residues stand in square brackets, D forms with d. Residues, ends and D or L forms follow the SMILES beside them. Groups on a side chain read outwards from the residue. *: point of attachment. C20 diacid = O=C(O)CCCCCCCCCCCCCCCCCCC(=O)*; γGlu = O=C(O)[C@H](CCC(=O)[*:2])N[*:1]; NMeI = CC[C@H](C)[C@H](NC)C(=O)O; AEEA = NCCOCCOCC(=O)O; Aib = CC(C)(N)C(=O)O

Assays:
hCRHR2 = target: T1, hCRHR2 (Homo sapiens, UniProt Q13324); test: HTRF cAMP assay, determination of hCRHR2 potency (peptide libraries 5 conc., purified peptides 11 conc.); assay type: cell-based; conditions: for Selectivity ratio (hCRHR1/ hCRHR2): hCRHR1-EC50/hCRHR2-EC50
T1 sequence (Q13324 1-411): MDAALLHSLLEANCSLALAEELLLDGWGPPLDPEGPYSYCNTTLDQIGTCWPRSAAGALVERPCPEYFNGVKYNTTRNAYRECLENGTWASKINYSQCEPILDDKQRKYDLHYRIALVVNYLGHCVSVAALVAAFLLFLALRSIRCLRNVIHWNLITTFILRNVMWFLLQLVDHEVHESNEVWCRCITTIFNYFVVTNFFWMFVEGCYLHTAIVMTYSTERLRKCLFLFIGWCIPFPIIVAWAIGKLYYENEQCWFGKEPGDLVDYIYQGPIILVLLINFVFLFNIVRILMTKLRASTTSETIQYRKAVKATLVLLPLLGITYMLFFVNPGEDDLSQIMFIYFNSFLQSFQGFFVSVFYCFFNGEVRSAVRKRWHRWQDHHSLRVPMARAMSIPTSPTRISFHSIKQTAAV
Outline: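 Potency was read as cAMP accumulation in a stable CHO-K1 line expressing human CRHR2, used in suspension right after thawing. Detection relied on energy transfer from antibody-bound cryptate to d2-cAMP.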

hCRHR1 = target: T2, hCRHR1 (Homo sapiens, UniProt P34998); test: HTRF cAMP assay, determination of hCRHR1 potency (peptide libraries 5 conc., purified peptides 11 conc.); assay type: cell-based
T2 sequence (P34998 24-415): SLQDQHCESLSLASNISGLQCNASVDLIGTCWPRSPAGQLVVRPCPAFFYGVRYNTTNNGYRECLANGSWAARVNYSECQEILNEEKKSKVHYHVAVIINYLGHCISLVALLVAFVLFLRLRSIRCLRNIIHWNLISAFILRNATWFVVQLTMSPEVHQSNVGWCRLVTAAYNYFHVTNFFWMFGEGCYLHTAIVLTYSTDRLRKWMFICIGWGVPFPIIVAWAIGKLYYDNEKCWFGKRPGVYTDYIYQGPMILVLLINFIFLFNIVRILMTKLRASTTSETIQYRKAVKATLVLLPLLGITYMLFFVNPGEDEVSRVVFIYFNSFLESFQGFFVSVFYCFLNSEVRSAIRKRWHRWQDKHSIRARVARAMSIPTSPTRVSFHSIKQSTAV
Outline: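 CHO-K1 cells stably expressing human CRHR1, thawed from frozen stocks just before use, were stimulated in suspension with agonist peptides. cAMP was measured by HTRF competitive immunoassay (cryptate anti-cAMP antibody vs d2-cAMP).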

PK in rats = assay type: in vivo; set-up: T½ / MRT: unit not given here; conditions: for MRT / T½ / clearance / half-life / Cmax / Tmax: Rat; for clearance / half-life / Cmax / Tmax / bioavailability: male, in vivo; for clearance / half-life / Cmax / Tmax: Sprague Dawley (RJHan:SD); for half-life: read-out: T½ (converted); for bioavailability: Sprague Dawley, rat
Protocol: Lean male Sprague Dawley rats (RJHan:SD) were obtained from JanVier (JanVier Labs, France) at 7 weeks of age. The animals were pair housed until randomization under a 12/12 h dark-light cycle, light off at 3 PM. Room temperature was controlled to 22°C ± 1°C, with 60 % ± 20% humidity.
Animals had ad libitum access to regular rodent chow (Altromin 1324, Brogaarden, Denmark) and tap water.
After 2 weeks of acclimatization, the animals were single housed and randomized into treatment groups (n = 3 per group) based on body weight on study day -3. On study day 1, animals were dosed 50 nmol/kg IV and SC in combination of two peptides. Plasma samples were collected for PK analysis at times 0.17, 1, 3, 6, 24, 30, 48, 72 and 96 hours post dosing. Plasma samples were analyzed using LC-MSMS and PK parameters were estimated by Non-Compartmental Analysis (NCA).

[1] = Effect on acute food intake in mice; assay type: in vivo; conditions: single subcutaneous dose
Protocol: Male NMRI mice were obtained from JanVier (JanVier Labs, France) at 5 weeks of age. The animals were group-housed 4 mice pr. cage under a 12/12 h dark-light cycle, light off at 1 PM. Room temperature was controlled to 22°C ± 1°C, with 60 % ± 20% humidity. Animals had ad libitum access to regular rodent chow (Altromin 1324, Brogaarden, Denmark) and tap water.
Animals were transferred 5-7 days before the start of the study to a real-time food intake monitoring system, HM-2 system (MBRose, Denmark) to allow acclimatization to experimental conditions. As the animals were uniquely identified with microchips, each individual animal was identified by its microchip upon entry and exit from the food channel. Randomization of the mice for each study group (n=7-8) was based on body weight measured the day before the start of the study. A vehicle-treated group was included in each experiment. Six hours before the start of the dark phase, animals were fasted. One hour before the dark phase, animals were dosed once subcutaneously with test peptide. Food intake was reported hourly for a period of 72 hours. The percentage of food intake reduction was normalized to average food intake from the vehicle group. Statistical significance was evaluated using One-way analysis of variance with Dunnett's multiple comparison test. P < 0.05 was considered statistically significant.
Selected compounds were tested according to the general procedure on acute food intake in mice to determine the effect of a single subcutaneous dose on food intake in mice over 3 days.

[2] = purified peptides, CHO-K1 cells stably expressing hCRHR2, cAMP HTRF, read-out: hCRHR2 EC50
[3] = purified peptides, CHO-K1 cells stably expressing hCRHR1, cAMP HTRF, read-out: hCRHR1 EC50
[4] = stable cell system, Table 10, read-out: Stable EC50 (nM) hCRHR 1

Structure (SMILES) | Selectivity ratio (hCRHR1/ hCRHR2) (hCRHR2) | EC50 (hCRHR2; [2]) | EC50 (hCRHR1; [3]) | EC50 (hCRHR1; [4]) | MRT (PK in rats) | T½ (PK in rats) | clearance (PK in rats; iv, 50 nmol/kg i.v.) | half-life (PK in rats; iv, 50 nmol/kg i.v.) | Cmax (PK in rats; sc, 50 nmol/kg s.c.) | Tmax (PK in rats; sc, 50 nmol/kg s.c.) | half-life (PK in rats; sc, 50 nmol/kg s.c.) | bioavailability (PK in rats; sc) | % FI compared to vehicle, 24 h post-dosing ([1]; 30 nmol/kg) | % FI compared to vehicle, 24 h post-dosing ([1]; 100 nmol/kg) | % FI compared to vehicle, 24 h post-dosing ([1]; 300 nmol/kg) | Solubility pH 6.5 (mg/ml) | Solubility pH 7.0 (mg/mL) | Solubility pH 7.5 (mg/mL) | Solubility pH 7.5 + phenol (mg/mL) | Solubility pH 7.5, target conc. =10 mg/mL (measured mg/mL) | also measured
CC[C@H](C)[C@H](NC)C(=O)N[C@H](C(=O)N[C@@H](CC(C)C)C(=O)N[C@@H](CO)C(=O)N[C@@H](CC(C)C)C(=O)N[C@@H](CC(=O)O)C(=O)N[C@H](C(=O)N1CCC[C@H]1C(=O)N[C@H](C(=O)NCC(=O)N[C@@H](CC(C)C)C(=O)N[C@@H](CC(C)C)C(=O)N[C@@H](CCC(N)=O)C(=O)N[C@H](C(=O)N[C@@H](CC(C)C)C(=O)N[C@@H](CC(C)C)C(=O)N[C@@H](CCC(=O)O)C(=O)N[C@@H](CCC(N)=O)C(=O)N[C@@H](C)C(=O)N[C@@H](CCCNC(=N)N)C(=O)N[C@@H](C)C(=O)N[C@@H](CCCNC(=N)N)C(=O)N[C@@H](C)C(=O)N[C@@H](C)C(=O)N[C@@H](CCCNC(=N)N)C(=O)N[C@@H](CCC(=O)O)C(=O)N[C@@H](CCC(N)=O)C(=O)N[C@@H](C)C(=O)N[C@H](C(=O)N[C@@H](CCCCNC(=O)COCCOCCNC(=O)COCCOCCNC(=O)CC[C@H](NC(=O)CC[C@H](NC(=O)CCCCCCCCCCCCCCCCCCC(=O)O)C(=O)O)C(=O)O)C(=O)N[C@@H](CC(N)=O)C(=O)N[C@@H](C)C(=O)N[C@@H](CCC(=O)O)C(=O)N[C@H](C(=O)N[C@@H](CC(C)C)C(=O)N[C@@H](C)C(=O)N[C@@H](CCC(=O)O)C(=O)N[C@H](C(N)=O)C(C)C)[C@@H](C)CC)[C@@H](C)O)[C@@H](C)CC)[C@@H](C)CC)C(C)C)C(C)C [SEQ ID NO: 6] (H-[NMeI]VLSLDVPIGLLQILLEQARARAAREQATK([AEEA-AEEA-γGlu-γGlu-C20 diacid])NAEILAEV-NH2) | >1852 | 2.7 nM | > 5000 nM | > 5000 nM | 7.4 | 6.1 | 0.15 mL/min/kg | 6.1 h | 70 nM | 24 h | 8.4 h | 35% | 51.61*** % | 25.76*** % | 12.69*** % | 21.1 mg/ml | 20.0 mg/mL | 18.7 mg/mL | 18.1 mg/mL |  | EC50 (hCRHR2; stable cell system, Table 10, read-out: Stable EC50 (nM) hCRHR 2a): 3 nM
CC[C@H](C)[C@H](NC)C(=O)N[C@H](C(=O)N[C@@H](CC(C)C)C(=O)N[C@@H](CO)C(=O)N[C@@H](CC(C)C)C(=O)N[C@@H](CC(=O)O)C(=O)N[C@H](C(=O)N1CCC[C@H]1C(=O)N[C@H](C(=O)NCC(=O)N[C@@H](CC(C)C)C(=O)N[C@@H](CC(C)C)C(=O)N[C@@H](CCC(N)=O)C(=O)N[C@H](C(=O)N[C@@H](CC(C)C)C(=O)N[C@@H](CC(C)C)C(=O)N[C@@H](CCC(=O)O)C(=O)N[C@@H](CCC(N)=O)C(=O)N[C@@H](C)C(=O)N[C@@H](CCCNC(=N)N)C(=O)N[C@@H](C)C(=O)N[C@@H](CCCNC(=N)N)C(=O)N[C@@H](C)C(=O)N[C@@H](C)C(=O)N[C@@H](CCCNC(=N)N)C(=O)N[C@@H](CCC(=O)O)C(=O)N[C@@H](CCC(N)=O)C(=O)N[C@@H](C)C(=O)N[C@@H](CCCCNC(=O)COCCOCCNC(=O)COCCOCCNC(=O)CC[C@H](NC(=O)CC[C@H](NC(=O)CCCCCCCCCCCCCCCCCCC(=O)O)C(=O)O)C(=O)O)C(=O)N[C@H](C(=O)N[C@@H](CC(N)=O)C(=O)NC(C)(C)C(=O)N[C@@H](CCC(=O)O)C(=O)N[C@H](C(=O)N[C@@H](CC(C)C)C(=O)N[C@@H](C)C(=O)N[C@@H](CCC(=O)O)C(=O)N[C@H](C(N)=O)C(C)C)[C@@H](C)CC)[C@@H](C)O)[C@@H](C)CC)[C@@H](C)CC)C(C)C)C(C)C [SEQ ID NO: 16] (H-[NMeI]VLSLDVPIGLLQILLEQARARAAREQAK([AEEA-AEEA-γGlu-γGlu-C20 diacid])TN[Aib]EILAEV-NH2) | >1852 | 2.7 nM | > 5000 nM | > 5000 nM | 9.4 | 7.8 | 0.117 mL/min/kg | 7.8 h | 87 nM | 24 h | 9.8 h | 31% | 44.62*** % | 18.21*** % | 12.36*** % | 20.6 mg/ml | 19.8 mg/mL | 17.9 mg/mL | 18.0 mg/mL | 10 mg/mL | 
CC[C@H](C)[C@H](N)C(=O)N[C@H](C(=O)N[C@@H](CC(C)C)C(=O)N[C@@H](CO)C(=O)N[C@@H](CC(C)C)C(=O)N[C@@H](CC(=O)O)C(=O)N[C@H](C(=O)N1CCC[C@H]1C(=O)N[C@H](C(=O)NCC(=O)N[C@@H](CC(C)C)C(=O)N[C@@H](CC(C)C)C(=O)N[C@@H](CCC(N)=O)C(=O)N[C@H](C(=O)N[C@@H](CC(C)C)C(=O)N[C@@H](CC(C)C)C(=O)N[C@@H](CCC(=O)O)C(=O)N[C@@H](CCC(N)=O)C(=O)N[C@@H](C)C(=O)N[C@@H](CCCNC(=N)N)C(=O)N[C@@H](C)C(=O)N[C@@H](CCCNC(=N)N)C(=O)N[C@@H](C)C(=O)N[C@@H](C)C(=O)N[C@@H](CCCNC(=N)N)C(=O)N[C@@H](CCC(=O)O)C(=O)N[C@@H](CCC(N)=O)C(=O)N[C@@H](C)C(=O)N[C@@H](CCCCNC(=O)COCCOCCNC(=O)COCCOCCNC(=O)CC[C@H](NC(=O)CC[C@H](NC(=O)CCCCCCCCCCCCCCCCCCC(=O)O)C(=O)O)C(=O)O)C(=O)N[C@@H](CCC(=O)O)C(=O)N[C@@H](CC(N)=O)C(=O)N[C@@H](C)C(=O)N[C@@H](CCC(=O)O)C(=O)N[C@H](C(=O)N[C@@H](CC(C)C)C(=O)N[C@@H](C)C(=O)N[C@@H](CCC(=O)O)C(=O)N[C@H](C(N)=O)C(C)C)[C@@H](C)CC)[C@@H](C)CC)[C@@H](C)CC)C(C)C)C(C)C [SEQ ID NO: 17] (H-IVLSLDVPIGLLQILLEQARARAAREQAK([AEEA-AEEA-γGlu-γGlu-C20 diacid])ENAEILAEV-NH2) | >2381 | 2.1 nM | > 5000 nM |  | 7.6 | 7.1 |  |  |  |  |  |  | 78.97* % | 48.64*** % | 19.52*** % |  |  |  |  | 9.2 mg/mL | 
